Assay results: patent US6852734B2, “Indole derivatives exhibiting chymase-inhibitory activities and process for preparation thereof” (Meiji Seika Kaisha, Ltd., priority 2000, dated 2005)

What was measured:
[1] = molecular target: T1, active-type human chymase (Homo sapiens, UniProt P23946); experiment: Chymase inhibitory activity (Test Example 1; hydrolysis of succinyl-alanyl-histidyl-prolyl-phenylalanyl-p-nitroanilide, absorbance at 405 nm); format: biochemical; details: recombinant active-type human chymase, 0.5 mM p-nitroanilide substrate, Buffer A pH 8.0, room temperature, 5 minutes; read-out: Chymase inhibitory activity IC50 (molar concentration)
T1 construct: made in house
T1 sequence (P23946 22-247): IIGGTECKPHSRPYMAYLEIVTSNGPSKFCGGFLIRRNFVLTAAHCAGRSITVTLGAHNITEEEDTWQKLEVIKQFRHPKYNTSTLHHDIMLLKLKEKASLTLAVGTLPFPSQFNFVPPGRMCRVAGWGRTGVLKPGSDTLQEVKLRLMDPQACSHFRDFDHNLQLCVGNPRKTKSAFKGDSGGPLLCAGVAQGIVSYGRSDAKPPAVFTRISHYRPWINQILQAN
Experimental: • (a) The preparation of the enzyme chymase was carried out as follows. That is, a recombinant pro-type human chymase to be used had been prepared in accordance with the method of Urata et al's report [“J. Biol. Chem.”, Vol.266, p.17173 (1991)]. Further, the chymase product as preliminarily purified was activated in accordance with the method of Murakami et al's report [“J. Biol. Chem.”, Vol.270, p.2218 (1991)]. The resulting activated chymase product was purified with heparin Sepharose to afford an active-type human chymase. • (b) To 50 μl of Buffer A (comprising 0.5-3.0M NaCl and 50 mM tris-HCl, pH 8.0) containing 1-5 ng of the active-type human chymase as obtained by the above-mentioned methods, was added 2 μl of a solution in […] which contained an indole derivative of this invention as the substance to be tested. Then, to the resultant mixture, there was added 50 μl of Buffer A containing 0.5 mM of succinyl-alanyl-histidyl-prolyl-phenylalanyl-p-nitroanilide (a product of Backem Co.) as the substrate. The resulting reaction mixture was incubated at room temperature for 5 minutes. The chymase inhibitory activity was assessed by measuring the changes in the absorbance of a light at 405 nm of the resulting reaction solution with the passage of time. The chymase inhibitory activity of the indole derivatives tested of this invention was evaluated in term of IC50 values (in molar concentration, M).
The indole derivatives of this invention as tested in this Example are the compounds of Compound No. 003, 021, 026, 027, 030, 076 and 078 shown in Table 1 above.

[2] = molecular target: T2, chymase (Homo sapiens, UniProt P23946); details: confirmed in PCT/JP99/06738 (WO 00/32587); cited from earlier work
T2 sequence (P23946 22-247): T1 sequence (P23946 22-247)

SMILES | IC50 [1] [nM] | chymase inhibitory activity (in words) [2]
COc1ccc(C(=O)OCCc2c(C(c3ccc(C(F)(F)F)cc3)c3c(O)c4ccccc4n(C)c3=O)[nH]c3ccccc23)cc1OC (stereo not shown) [Compound No. 021] | 1.4 | 
Cn1c(=O)c(C(c2cccc(Br)c2)c2[nH]c3ccccc3c2CCNS(=O)(=O)c2ccc3ccccc3c2)c(O)c2ccccc21 (stereo not shown) [Compound No. 026] | 0.439 | 
Cn1c(=O)c(C(c2ccc(OC(F)(F)F)cc2)c2[nH]c3ccccc3c2CCNS(=O)(=O)c2ccc3ccccc3c2)c(O)c2ccccc21 (stereo not shown) [Compound No. 027] | 5.11 | 
Cn1c(=O)c(C(c2ccc(OC(F)(F)F)cc2)c2[nH]c3ccccc3c2CCOC(=O)c2ccccc2)c(O)c2ccccc21 (stereo not shown) [Compound No. 030] | 0.587 | 
CC(=O)OCCc1c(C(c2cccc(Br)c2)c2c(O)c3ncsc3n(C)c2=O)[nH]c2ccccc12 (stereo not shown) [Compound No. 076] | 0.893 | 
CC(=O)NCCc1c(C(c2ccccc2OC(C)=O)c2c(O)c3ccccc3n(C)c2=O)[nH]c2ccccc12 (stereo not shown) [Compound No. 078] | 1.86 | 
Cn1c(=O)c(Cc2[nH]c3ccccc3c2CCO)c(O)c2ccccc21 [SF2809-III] |  | has a chymase inhibitory activity
CC(=O)NCCc1c(C(c2ccc(O)cc2)c2c(O)c3ccccc3n(C)c2=O)[nH]c2ccccc12 (stereo not shown) [SF2809-II] |  | has a chymase inhibitory activity
Cn1c(=O)c(C(c2ccc(O)cc2)c2[nH]c3ccccc3c2CCO)c(O)c2ccccc21 (stereo not shown) [SF2809-IV] |  | has a chymase inhibitory activity
CC(=O)NCCc1c(Cc2c(O)c3ccccc3n(C)c2=O)[nH]c2ccccc12 [SF2809-I] |  | has a chymase inhibitory activity
Cn1c(=O)c(C(c2ccccc2)c2[nH]c3ccccc3c2CCO)c(O)c2ccccc21 (stereo not shown) [SF2809-VI] |  | has a chymase inhibitory activity
CC(=O)NCCc1c(C(c2ccccc2)c2c(O)c3ccccc3n(C)c2=O)[nH]c2ccccc12 (stereo not shown) [SF2809-V] |  | has a chymase inhibitory activity
Cn1c(=O)c(C(c2cccc(F)c2)c2[nH]c3ccccc3c2CCNC(=O)c2cc(C(F)(F)F)cc(C(F)(F)F)c2)c(O)c2ccccc21 (stereo not shown) [compound 003] | 2.64 | 
